Measured values taken from patent publication US6858650B1, “Stable salts of novel derivatives of 3,3-diphenylpropylamines” (Schwarz Pharma AG, priority 1999, dated 2005).

Experiments:
[1] = Hygroscopicity of the solid salt; assay type: physicochemical
[2] = Stability of the solid salt / on storage; assay type: physicochemical

CC(C)C(=O)Oc1ccc(CO)cc1C(CCN(C(C)C)C(C)C)c1ccccc1.O=C(O)/C=C/C(=O)O (stereo not drawn) [2a, R-(+)-2-(3-diisopropylamino-1-phenylpropyl)-4-hydroxymethylphenyl-isobutyrate ester hydrogen fumarate]
hygroscopicity ([1]; crystalline hydrogen fumarate salt): non-hygroscopic | stability ([2]; crystalline hydrogen fumarate salt, at RT): stable at RT

CC(C)C(=O)Oc1ccc(CO)cc1C(CCN(C(C)C)C(C)C)c1ccccc1.Cl (stereo not drawn) [2b, R-(+)-2-(3-diisopropylamino-1-phenylpropyl)-4-hydroxymethylphenyl-isobutyrate ester hydrochloride hydrate]
hygroscopicity ([1]; anhydrous product crystallised from isobutyrate chloride solution): very hygroscopic | stability ([2]; hydrate-containing product from humid solvent with at least one mole equivalent of water): stable
